Source: US20040234586A1, “Compositions and methods for enhancing nucleic acid transfer into cells” (priority 2001, published 2004)

System: Rat1 fibroblast cells
Test: Transfection efficiency with pCMV-LacZ DNA, β-galactosidase activity of cell lysate (ONPG assay)
Type: cell-based, rat
Conditions: for transfection efficiency alone or in combination with PEI, compared with PEI alone / transfection efficiency when combined to PEI as compared to PEI alone: PEI N/P=10; for transfection efficiency alone or in combination with PEI, compared with PEI alone: lipid 2 mg/ml; for transfection efficiency when combined to PEI as compared to PEI alone: 0.25 to 7.5 μl lipid per ug DNA
Description: Transfection complexes were prepared as described by Boussif et al. (Boussif et al., 1995).
Lipid was diluted in 100 μl of growth media without serum and antibiotics. The solutions were immediately homogenized and left at room temperature for 5-10 min. […] The combined material was vortexed and incubated at room temperature for 20 min before addition to the cells.
Rat1 fibroblast cells were maintained in modified Eagle medium (MEM) (Life Technologies) and VSMC cells were maintained in Dulbecco's modified Eagle medium (DMEM) (Life Technologies). Both cell lines were cultured in media containing 10% heat inactivated calf serum (Life Technologies), 1% penicillin-streptomycin, and L-glutamine in 10 cm tissue culture flasks at 37° C. in a humidified 5% CO2 atmosphere. Cells were grown to 80% confluency, detached with trypsin-EDTA and replated in 2 new flasks 18-24 h before transfection. Two to three hours before transfections, cells were again detached, and seeded at a density of 5×10^4 cells per well in 24-multiwell tissue culture plates.
At the time of transfection, cells were supplemented with 200-400 μl of fresh complete media containing 10% calf serum and antibiotics unless otherwise specified. Transfection solution was added to each well and the plates were incubated at 37° C. in a humidified atmosphere containing 5% CO2. After 6 h of transfection, the transfecting solution was removed, cells were washed once with appropriate cell culture medium and then covered with 1 ml of the same medium. Cells were maintained for an additional 36-48 h.
Following transfections with pCMV-LacZ DNA (36-48 h later), cells were washed twice with ice-cold 0.1 M phosphate buffered saline (PBS) and lysed with 250 μl lysis buffer (10 mM Tris-HCl pH 7.5, 1 mM EDTA, 100 mM NaCl, 5 mM MgCl2 and 1% Nonidet P40™ (Boehringer Mannheim)). Lysates were centrifuged 15 000×g at 4° C. for 5 min. The supernatant was collected and its protein concentration was determined using the BCA protein assay kit (PIERCE) using the microwell protocol according to the manufacturer's specifications. β-galactosidase assay was performed as described by Eustice et al. (Eustice et al., 1991) Briefly, β-galactosidase activity was measured in 240 μl assay mixture containing 80 mM sodium phosphate buffer, pH 7.3, 102 mM 2-mercaptoethanol, 9.0 mM MgCl2 and 8.0 mM ONPG (o-nitrophenyl-β-D-galactopyranoside, SIGMA). Samples, (1-40 μl) of each lysate were assayed in the reaction mixture at 37° C. for 30 min in 96-well plates. Absorbance was measured at 405 nm. E. coli β-galactosidase (Roche) was used to generate a standard curve.

| Molecule | transfection efficiency alone or in combination with PEI, compared with PEI alone (1 μg DNA) | transfection efficiency when combined to PEI as compared to PEI alone (1 μg DNA) | also measured |
| --- | --- | --- | --- |
| CCCCCCCC/C=C\CCCCCCCC(=O)OCC(CN(C)C)OC(=O)CCCCCCC/C=C\CCCCCCCC (stereo not drawn) [1,2-dioleoyl-3-dimethylammonium-propane] | did not display, alone or in combination with PEI, transfection efficiencies that were better or even equal to that obtained with PEI alone |  |  |
| CCCCCCCC/C=C\CCCCCCCC(=O)OCC(C[N+](C)(C)C)OC(=O)CCCCCCC/C=C\CCCCCCCC (stereo not drawn) [1,2-dioleoyl-3-trimethylammonium-propane] | did not display, alone or in combination with PEI, transfection efficiencies that were better or even equal to that obtained with PEI alone |  |  |
| CCCCCCCC/C=C\CCCCCCCC(=O)OC[C@@H](COP(=O)(OCC)OCC[N+](C)(C)C)OC(=O)CCCCCCC/C=C\CCCCCCCC (stereo partly drawn) [1,2-dioleoyl-sn-glycero-3-ethylphosphocholine] | did not display, alone or in combination with PEI, transfection efficiencies that were better or even equal to that obtained with PEI alone |  |  |
| CCCCCCCC/C=C\CCCCCCCC(=O)OC[C@H](COP(=O)([O-])OCC[N+](C)(C)C)OC(=O)CCCCCCC/C=C\CCCCCCCC [DOPC, 1,2-Dioleoly-sn-Glycero-3-Phosphocholine] |  | enhance transfection efficiency |  |
| CCCCCCCC/C=C\CCCCCCCC(=O)OC[C@H](COP(=O)(O)OCCN)OC(=O)CCCCCCC/C=C\CCCCCCCC [DOPE, 1,2-Dioleoyl-sn-Glycero-3-Phosphoethanolamine] |  | enhance transfection efficiency | β-galactosidase activity when combined to DNA alone (0.25 to 7.5 μl per ug DNA, without PEI): no β-galactosidase activity; increase of transfection efficiency over PEI alone (combined with PEI (N/P=10), 1 μg DNA): ≤ 26 fold |
| CC(C)CCCC(C)CCCC(C)CCCC(C)CC(=O)OC[C@H](COP(=O)(O)OCCN)OC(=O)CC(C)CCCC(C)CCCC(C)CCCC(C)C (stereo partly drawn) [DPPE, 1,2-Diphytanoyl-sn-Glycero-3-Phosphoethanolamine] |  | enhance transfection efficiency |  |
| L-α-phosphatidylcholine | did not display, alone or in combination with PEI, transfection efficiencies that were better or even equal to that obtained with PEI alone |  |  |
